In ChEMBL document CHEMBL1629479, “Old phenothiazine and dibenzothiadiazepine derivatives for tomorrow's neuroprotective therapies against neurodegenerative diseases” (Eur J Med Chem, 2010):
pIC50: −log10 of the molar value.

Columns and labels:
SH-SY5Y [1] = assay: Neuroprotective activity against H2O2-induced oxidative stress in human SH-SY5Y cells assessed as LDH release at 3 uM after 24 hrs by UV-vis spectroscopy; assay type: functional
SH-SY5Y [2] = assay: Neuroprotective activity against rotenone and oligomycin-induced mitochondrial oxidative stress in human SH-SY5Y cells assessed as LDH release at 3 uM after 24 hrs using DCFH-DA fluorescent dye; assay type: functional
SH-SY5Y [3] = assay: Neuroprotective activity against H2O2-induced oxidative stress in human SH-SY5Y cells assessed as LDH release at 100 uM after 24 hrs by UV-vis spectroscopy; assay type: functional
SH-SY5Y [4] = assay: Neuroprotective activity against rotenone and oligomycin-induced mitochondrial oxidative stress in human SH-SY5Y cells assessed as LDH release at 10 uM after 24 hrs using DCFH-DA fluorescent dye; assay type: functional
SH-SY5Y [5] = assay: Neuroprotective activity against H2O2-induced oxidative stress in human SH-SY5Y cells assessed as LDH release at 30 uM after 24 hrs by UV-vis spectroscopy; assay type: functional
Cholinesterase = Cholinesterase (Equus caballus, UniProt P81908); assay: Inhibition of equine serum BuChE by Ellman's method
Cholinesterase, sequence (P81908 whole entry): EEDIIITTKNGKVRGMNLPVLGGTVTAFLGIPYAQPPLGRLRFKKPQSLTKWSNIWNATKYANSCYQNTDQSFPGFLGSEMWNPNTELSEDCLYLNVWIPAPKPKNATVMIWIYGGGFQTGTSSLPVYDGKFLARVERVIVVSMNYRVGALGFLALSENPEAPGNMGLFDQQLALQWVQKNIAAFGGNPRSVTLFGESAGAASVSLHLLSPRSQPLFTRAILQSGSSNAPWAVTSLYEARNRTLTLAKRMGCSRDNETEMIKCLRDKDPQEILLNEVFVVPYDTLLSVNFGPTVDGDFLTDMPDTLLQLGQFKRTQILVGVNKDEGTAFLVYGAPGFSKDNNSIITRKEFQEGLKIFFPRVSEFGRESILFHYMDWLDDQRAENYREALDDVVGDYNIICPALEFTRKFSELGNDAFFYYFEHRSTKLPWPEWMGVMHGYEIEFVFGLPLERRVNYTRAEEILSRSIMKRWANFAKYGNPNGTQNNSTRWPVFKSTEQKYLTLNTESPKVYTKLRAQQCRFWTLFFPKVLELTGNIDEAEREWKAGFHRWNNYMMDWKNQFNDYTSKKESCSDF

SH-SY5Y [6] = assay: Neuroprotective activity against rotenone and oligomycin-induced mitochondrial oxidative stress in human SH-SY5Y cells assessed as LDH release at 30 uM after 24 hrs using DCFH-DA fluorescent dye; assay type: functional
SH-SY5Y [7] = assay: Neuroprotective activity against H2O2-induced oxidative stress in human SH-SY5Y cells assessed as LDH release at 60 uM after 24 hrs by UV-vis spectroscopy; assay type: functional
SH-SY5Y [8] = assay: Cytotoxicity against human SH-SY5Y cells assessed as LDH release at 100 uM after 24 hrs by UV-vis spectroscopy; assay type: cell-based
Acetylcholinesterase = biological target: T1, Acetylcholinesterase (Bos taurus, UniProt P23795)
T1 sequence (P23795 whole entry): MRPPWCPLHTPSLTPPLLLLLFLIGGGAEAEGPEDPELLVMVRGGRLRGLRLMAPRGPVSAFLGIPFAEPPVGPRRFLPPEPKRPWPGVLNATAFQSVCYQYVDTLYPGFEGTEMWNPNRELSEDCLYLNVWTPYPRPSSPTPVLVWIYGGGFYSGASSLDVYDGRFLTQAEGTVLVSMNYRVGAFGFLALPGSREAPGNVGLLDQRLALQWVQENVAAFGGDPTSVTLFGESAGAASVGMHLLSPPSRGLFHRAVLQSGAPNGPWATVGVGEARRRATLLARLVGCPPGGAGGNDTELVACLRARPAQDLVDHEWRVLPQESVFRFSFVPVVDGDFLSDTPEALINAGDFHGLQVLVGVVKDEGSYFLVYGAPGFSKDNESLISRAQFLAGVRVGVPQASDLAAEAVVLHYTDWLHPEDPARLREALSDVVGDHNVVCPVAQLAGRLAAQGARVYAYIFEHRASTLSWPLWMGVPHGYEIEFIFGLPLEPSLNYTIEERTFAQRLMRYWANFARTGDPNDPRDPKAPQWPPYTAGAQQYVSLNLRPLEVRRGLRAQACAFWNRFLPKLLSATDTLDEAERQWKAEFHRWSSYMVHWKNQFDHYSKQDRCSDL
Description: Inhibition of bovine erythrocyte AChE by Ellman's method

[9] = Permeability of the compound by PAMPA at pH 7.4; assay type: ADME; details: read-out: permeability
SH-SY5Y [10] = assay: Neuroprotective activity against H2O2-induced oxidative stress in human SH-SY5Y cells assessed as LDH release at 1 uM after 24 hrs by UV-vis spectroscopy; assay type: functional
SH-SY5Y [11] = assay: Neuroprotective activity against H2O2-induced oxidative stress in human SH-SY5Y cells assessed as LDH release at 100 uM after 24 hrs by UV-vis spectroscopy in presence of calcium channel blocker nimodipine; assay type: functional
SH-SY5Y [12] = assay: Neuroprotective activity against H2O2-induced oxidative stress in human SH-SY5Y cells assessed as LDH release at 30 uM after 24 hrs by UV-vis spectroscopy in presence of calcium channel blocker nimodipine; assay type: functional

Row | SMILES | Activity (SH-SY5Y [1]) | Activity (SH-SY5Y [2]) | Activity (SH-SY5Y [3]) | Activity (SH-SY5Y [4]) | Activity (SH-SY5Y [5]) | pIC50 (Cholinesterase) | Activity (SH-SY5Y [6]) | Activity (SH-SY5Y [7]) | Activity (SH-SY5Y [8]) | pIC50 (Acetylcholinesterase) | Papp [9] | Activity (SH-SY5Y [10]) | Activity (SH-SY5Y [11]) | Activity (SH-SY5Y [12])
1 | CN1CCN(NCCN2c3ccccc3Sc3ccccc32)CC1.Cl.Cl | 8.3% | 19.4% | 42.1% | 22.5% | 22.1% | 4.30 | 22.6% | 36.9% | Non-toxic | < 4.00 | 9.1 ×10⁻⁶ cm/s | 14.1% | 16.4% | 
2 | CC(=O)NN1c2ccccc2Sc2ccc(Cl)cc21 | 0% |  | 0% |  | 0% | < 4.00 |  | 0% | Non-toxic | < 4.00 |  | 0% |  | 
3 | CN(C)CCC(=O)NN1c2ccccc2Sc2cc(Cl)ccc21 | 8.4% | 21.4% | 20.1% | 18.9% | 44.4% | 6.15 | 52.9% | 18.6% | Non-toxic | < 4.00 | 8.8 ×10⁻⁶ cm/s | 0% |  | 6.5%
4 | CN1CCN(CC(=O)NN2c3ccccc3Sc3cc(Cl)ccc32)CC1 | 17.1% |  | 18.8% |  | 37.9% | 6.30 |  | 18.4% | Non-toxic | < 4.00 |  | 12.5% |  | 
5 | Cc1c(C)c2c(c(C)c1O)CCC(C)(C(=O)O)O2 (configuration not stated) [TROLOX] | 0% | 52.9% | 64.2% | 43.2% | 57.7% |  | 39.3% | 55.7% |  |  |  | 0% | 60.3% | 
6 | CC(=O)n1c2ccccc2sc2cccc(Cl)c2n1C(C)=O | 6.4% | 48.5% | 41% | 43.4% | 11.4% | < 4.00 | 38.9% | 13.2% | Non-toxic | < 4.00 | 7.7 ×10⁻⁶ cm/s | 0% | 0% | 
7 | NN1c2ccccc2Sc2ccccc21 | 6.7% |  | 0% |  | 0% | < 4.00 |  | 0% | Non-toxic | < 4.00 |  | 0% |  | 
